Data published in PubChem BioAssay (NCI).
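96-well plates; 48 h exposure; 5 concentrations. Endpoints by linear interpolation between flanking doses. Not reached: highest tested concentration assigned. TGI: total growth inhibition.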

Legend:
Assay in all cases: NCI tumour cell line growth inhibition, 48 h
DMS 273 small cell lung = test system: DMS 273 small cell lung
SR leukemia = test system: SR leukemia
RXF 393 renal = test system: RXF 393 renal
IGROV1 ovarian = test system: IGROV1 ovarian
OVCAR-5 ovarian = test system: OVCAR-5 ovarian
HOP-92 NSCLC = test system: HOP-92 NSCLC
HOP-62 NSCLC = test system: HOP-62 NSCLC
SK-OV-3 ovarian = test system: SK-OV-3 ovarian
SK-MEL-2 melanoma = test system: SK-MEL-2 melanoma
MDA-MB-231 breast = test system: MDA-MB-231 breast
MDA-N = test system: MDA-N
CCRF-CEM leukemia = test system: CCRF-CEM leukemia
ACHN renal = test system: ACHN renal
T-47D breast = test system: T-47D breast
SK-MEL-5 melanoma = test system: SK-MEL-5 melanoma
RPMI-8226 leukemia = test system: RPMI-8226 leukemia
786-0 renal = test system: 786-0 renal
HOP-18 NSCLC = test system: HOP-18 NSCLC
NCI-H460 lung = test system: NCI-H460 lung
A549 NSCLC = test system: A549 NSCLC
M14 melanoma = test system: M14 melanoma
MCF7 breast = test system: MCF7 breast
BT-549 breast = test system: BT-549 breast
SNB-75 CNS = test system: SNB-75 CNS
MOLT-4 leukemia = test system: MOLT-4 leukemia
NCI/ADR-RES ovarian = test system: NCI/ADR-RES ovarian
SK-MEL-28 melanoma = test system: SK-MEL-28 melanoma
LOX IMVI melanoma = test system: LOX IMVI melanoma
XF 498 CNS = test system: XF 498 CNS
SF-539 CNS = test system: SF-539 CNS
UO-31 renal = test system: UO-31 renal
HCT-116 colon = test system: HCT-116 colon
A498 renal = test system: A498 renal
SW-620 colon = test system: SW-620 colon
OVCAR-8 ovarian = test system: OVCAR-8 ovarian
KM12 colon = test system: KM12 colon
HCT-15 colon = test system: HCT-15 colon
M19-MEL melanoma = test system: M19-MEL melanoma
MDA-MB-435 = test system: MDA-MB-435
K-562 leukemia = test system: K-562 leukemia
SNB-78 CNS = test system: SNB-78 CNS
HS 578T breast = test system: HS 578T breast
KM20L2 colon = test system: KM20L2 colon
NCI-H226 lung = test system: NCI-H226 lung
DU-145 prostate = test system: DU-145 prostate
HL-60(TB) leukemia = test system: HL-60(TB) leukemia
UACC-62 melanoma = test system: UACC-62 melanoma
CAKI-1 renal = test system: CAKI-1 renal
PC-3 prostate = test system: PC-3 prostate
SNB-19 CNS = test system: SNB-19 CNS
NCI-H522 lung = test system: NCI-H522 lung
LXFL 529 NSCLC = test system: LXFL 529 NSCLC
UACC-257 melanoma = test system: UACC-257 melanoma
HCC-2998 colon = test system: HCC-2998 colon
NCI-H23 lung = test system: NCI-H23 lung
OVCAR-3 ovarian = test system: OVCAR-3 ovarian
DLD-1 colon = test system: DLD-1 colon
MALME-3M melanoma = test system: MALME-3M melanoma
EKVX NSCLC = test system: EKVX NSCLC
HT29 colon = test system: HT29 colon
COLO 205 colon = test system: COLO 205 colon
U251 CNS = test system: U251 CNS
SF-295 CNS = test system: SF-295 CNS
SN12C renal = test system: SN12C renal
TK-10 renal = test system: TK-10 renal
DMS 114 small cell lung = test system: DMS 114 small cell lung
SF-268 CNS = test system: SF-268 CNS
OVCAR-4 ovarian = test system: OVCAR-4 ovarian

CC1OC(=O)C2CC3CCCCC3C(/C=C/C3CCCC(C)N3C)C12 (stereo not drawn)
TGI (DMS 273 small cell lung): > 100 µM
TGI (SR leukemia): > 100 µM
TGI (RXF 393 renal): > 100 µM
TGI (IGROV1 ovarian): > 100 µM
TGI (OVCAR-5 ovarian): > 100 µM
TGI (HOP-92 NSCLC): > 100 µM
TGI (HOP-62 NSCLC): > 100 µM
TGI (SK-OV-3 ovarian): > 100 µM
TGI (SK-MEL-2 melanoma): > 100 µM
TGI (MDA-MB-231 breast): > 100 µM
TGI (MDA-N): > 100 µM
TGI (CCRF-CEM leukemia): > 100 µM
TGI (ACHN renal): > 100 µM
TGI (T-47D breast): > 100 µM
TGI (SK-MEL-5 melanoma): > 100 µM
TGI (RPMI-8226 leukemia): > 100 µM
TGI (786-0 renal): > 100 µM
TGI (HOP-18 NSCLC): > 100 µM
TGI (NCI-H460 lung): > 100 µM
TGI (A549 NSCLC): > 100 µM
TGI (M14 melanoma): > 100 µM
TGI (MCF7 breast): > 100 µM
TGI (BT-549 breast): > 100 µM
TGI (SNB-75 CNS): > 100 µM
TGI (MOLT-4 leukemia): > 100 µM
TGI (NCI/ADR-RES ovarian): > 100 µM
TGI (SK-MEL-28 melanoma): > 100 µM
TGI (LOX IMVI melanoma): > 100 µM
TGI (XF 498 CNS): > 100 µM
TGI (SF-539 CNS): > 100 µM
TGI (UO-31 renal): > 100 µM
TGI (HCT-116 colon): > 100 µM
TGI (A498 renal): > 100 µM
TGI (SW-620 colon): > 100 µM
TGI (OVCAR-8 ovarian): > 100 µM
TGI (KM12 colon): > 100 µM
TGI (HCT-15 colon): > 100 µM
TGI (M19-MEL melanoma): > 100 µM
TGI (MDA-MB-435): > 100 µM
TGI (K-562 leukemia): > 100 µM
TGI (SNB-78 CNS): > 52.8 µM
TGI (HS 578T breast): > 100 µM
TGI (KM20L2 colon): > 100 µM
TGI (NCI-H226 lung): > 100 µM
TGI (DU-145 prostate): > 100 µM
TGI (HL-60(TB) leukemia): > 100 µM
TGI (UACC-62 melanoma): > 100 µM
TGI (CAKI-1 renal): > 100 µM
TGI (PC-3 prostate): > 100 µM
TGI (SNB-19 CNS): > 100 µM
TGI (NCI-H522 lung): > 100 µM
TGI (LXFL 529 NSCLC): > 100 µM
TGI (UACC-257 melanoma): > 100 µM
TGI (HCC-2998 colon): > 100 µM
TGI (NCI-H23 lung): > 100 µM
TGI (OVCAR-3 ovarian): > 100 µM
TGI (DLD-1 colon): > 100 µM
TGI (MALME-3M melanoma): > 100 µM
TGI (EKVX NSCLC): > 100 µM
TGI (HT29 colon): > 100 µM
TGI (COLO 205 colon): > 100 µM
TGI (U251 CNS): > 100 µM
TGI (SF-295 CNS): > 68.1 µM
TGI (SN12C renal): > 100 µM
TGI (TK-10 renal): > 100 µM
TGI (DMS 114 small cell lung): > 100 µM
TGI (SF-268 CNS): > 100 µM
TGI (OVCAR-4 ovarian): > 100 µM
